Values of other authors, collected in patent publication US20050107420A1 (Boehringe Ingelheim Pharma GmbH & Co. KG, priority 2002, published 2005).

Tests used:
[1] = biological target: PDE4D isoform (Homo sapiens, UniProt Q08499)
[2] = in vivo
[3] = system: PDE4 derived from tumor cells; details: read-out: IC50 against a PDE4 derived from tumor cells
[4] = system: tumor cells; details: micromolar concentrations
[5] = system: PDE4B mutant enzyme; details: alanine for aspartate substitution
[6] = in vivo; remark: listed apart in the source
[7] = oral administration, clinical conditions
[8] = system: cAMP
[9] = antigen-challenged pig
[10] = rat
[11] = system: TNF release and lymphocyte proliferation; details: oral dose of 300 mg
[12] = human, in vivo
[13] = not given; remark: listed apart in the source
[14] = system: catalytic site (Sc) of PDE4
[15] = system: gastric parietal cells
[16] = guinea-pig

PDE4D isoform, sequence (Q08499 whole entry, canonical isoform): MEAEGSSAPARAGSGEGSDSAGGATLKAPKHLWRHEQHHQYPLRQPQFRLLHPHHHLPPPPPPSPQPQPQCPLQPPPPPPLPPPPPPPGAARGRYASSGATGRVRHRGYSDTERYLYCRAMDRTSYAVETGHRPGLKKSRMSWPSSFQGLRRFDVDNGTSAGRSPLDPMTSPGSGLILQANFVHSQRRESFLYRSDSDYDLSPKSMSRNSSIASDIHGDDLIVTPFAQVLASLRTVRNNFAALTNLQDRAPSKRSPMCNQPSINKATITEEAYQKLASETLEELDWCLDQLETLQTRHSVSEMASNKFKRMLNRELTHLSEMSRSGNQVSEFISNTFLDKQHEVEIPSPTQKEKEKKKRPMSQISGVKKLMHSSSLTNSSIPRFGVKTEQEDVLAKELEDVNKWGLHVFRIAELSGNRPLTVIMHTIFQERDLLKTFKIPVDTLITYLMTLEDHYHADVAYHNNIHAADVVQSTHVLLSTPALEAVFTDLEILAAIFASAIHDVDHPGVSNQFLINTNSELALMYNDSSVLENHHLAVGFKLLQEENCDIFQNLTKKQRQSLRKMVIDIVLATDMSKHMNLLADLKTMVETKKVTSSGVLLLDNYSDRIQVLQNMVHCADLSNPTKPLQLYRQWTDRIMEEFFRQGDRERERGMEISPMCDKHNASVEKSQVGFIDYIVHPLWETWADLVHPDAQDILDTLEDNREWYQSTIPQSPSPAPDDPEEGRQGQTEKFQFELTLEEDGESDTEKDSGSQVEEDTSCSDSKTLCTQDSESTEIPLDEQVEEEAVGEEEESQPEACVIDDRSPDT

Structure (SMILES): N#Cc1cccc(-c2nc(-c3ccc(C(=O)O)cc3)cc3cccnc23)c1 [Formula (0.1.59)]
- potency or selectivity for PDE4D relative to other subtypes, in words [1]: PDE4D selective inhibitor

Structure (SMILES): COc1ccc(C2CNC(=O)NC2)cc1OC1CC2CCC1C2 (centres unmarked) [CP-80,633]
- emesis, nausea and vomiting [2]: elicit emesis

Structure (SMILES): O=C(NCc1ccccc1Cl)c1cccnc1Oc1ccc(F)cc1 [Formula (0.1.58)]
- selectivity for inhibition of the PDE4D isoform [1]: 100 fold

Structure (SMILES): Clc1nc2c(N3CCCC3)nc(C3CCNCC3)nc2nc1NCc1ccccc1 [Formula (0.1.55)]
- IC50 [3]: 16 nM
- inhibition of the growth of tumor cells [4]: inhibit the growth of tumor cells at micromolar concentrations

Structure (SMILES): COc1ccc(CC2CNC(=O)N2)cc1OC1CCCC1 (centres unmarked) [Ro-20-1724]
- potency on the mutant PDE4B enzyme [5]: lose potency

Structure (SMILES): COc1cc2c(cc1OC)[C@@H]1CN(C)CC[C@@H]1N=C2c1ccc(NC(C)=O)cc1 [benafentrine]
- bronchodilation [6]: bronchodilation only when administered by inhalation

Structure (SMILES): CSc1ccc(C(=O)c2[nH]c(=O)[nH]c2C)cc1 [enoximone]
- mean pulmonary artery pressure [7]: decreases in mean pulmonary artery pressure

Structure (SMILES): COc1ccc([C@@H](Cc2ccncc2)c2ccccc2)cc1OC1CCCC1 [CT-1731]
- elevation of cAMP, activity relative to enantiomer CDP840 [8]: less active

Structure (SMILES): CCCn1c(=O)c2c(C)nc(CC)n2c2nc(OC)ccc21 [Formula D-22888]
- anti-allergic effect [9]: strong anti-allergic affect
- rhinorrhea [9]: inhibit rhinorrhea

Structure (SMILES): COc1cc2c3c(c1)C(c1ccccc1)=N[C@@H](NC(=O)c1cc4ccccc4cn1)C(=O)N3CC2 [CI-1018]
- oral potency, ED50 [10]: 5 mg/kg

Structure (SMILES): CCNc1ncn(Cc2ccc(OC)c(OC3CCCC3)c2)c2nc(C(C)C)nc1-2 [Formula V-11294A]
- TNF levels and lymphocyte proliferation ex vivo [11]: effective in reducing TNF levels and lymphocyte proliferation

Structure (SMILES): O=c1c2cccnc2n(-c2cccc([N+](=O)[O-])c2)c(=O)n1Cc1ccncc1 [RS-25,344]
- potency or selectivity for PDE4D relative to other subtypes, in words [1]: more potent against PDE4D

Structure (SMILES): Cn1c(=O)c2[nH]cnc2n(C)c1=O [theophylline]
- neutrophil counts in the sputum of COPD patients [12]: reduces neutrophil counts

Structure (SMILES): CC[N+]1(C)[C@@H]2CC(OC(=O)[C@H](CO)c3ccccc3)C[C@H]1[C@@H]1O[C@@H]12 (some centres unmarked) [oxitropium]
- change in heart rate, blood pressure, bladder function, intraocular pressure, or pupillary diameter (inhaled at several times the recommended dose): little or no change

Structure (SMILES): CCOc1cc2cc(C(=O)O)sc2cc1OCC [tibenelast]
- bronchodilation [6]: Unsatisfactory results

Structure (SMILES): C[N+]1(C)C2CC(OC(=O)C(O)(c3cccs3)c3cccs3)CC1C1OC12 (stereo not drawn) [tiotropium, (1α, 2β, 4β, 5α, 7β)-7-[(hydroxydi-2-thienylacetyl)oxy]-9,9-dimethyl-3-oxa-9-azoniatricyclo[3.3.1.0^2,4]nonane bromide]
- duration of action (in vivo): prolonged duration of action

Structure (SMILES): CCCOc1ccccc1-c1nc2[nH]nnc2c(=O)[nH]1 [zaprinast]
- bronchodilation [6]: Unsatisfactory results

Structure (SMILES): COc1cc(-c2ccc(=O)[nH]n2)ccc1OC(F)F [zardaverine]
- bronchodilation [6]: only a modest and short-lived bronchodilation

Structure (SMILES): COc1ccc([C@H](Cc2ccncc2)c2ccccc2)cc1OC1CCCC1 [CDP840]
- late reactions to inhaled allergen ([13]; 9.5 days oral administration, 15 and 30 mg, patients with bronchial asthma): suppression of late reactions to inhaled allergen
- late-phase response in the treatment of asthma ([13]; human, in vivo): significant inhibition
- potency at the Sc [14]: significantly higher potency at the Sc than does SB-207,499

Structure (SMILES): COc1ccc(C2CNC(=O)C2)cc1OC1CCCC1 (centres unmarked) [rolipram]
- stimulation of acid secretion from gastric parietal cells [15]: very potent stimulator
- potency on the mutant PDE4B enzyme [5]: lose potency

Structure (SMILES): COc1ccc(C(=O)Nc2c(Cl)cncc2Cl)cc1OC1CCCC1 [RP-73,401]
- potency on the mutant PDE4B enzyme [5]: lose potency
- inhibition of antigen-induced airway eosinophilia and PAF- and ozone-induced airway hyper-responsiveness (AHR) [16]: active
- inhibition of antigen-induced bronchoalveolar lavage (BAL) eosinophilia [16]: active
- inhibition of antigen-induced lung eosinophilia and eosinophil peroxidase (EPO) [16]: active
